According to US20140314881A1 (priority 2009, published 2014):
Like-named read-outs stand apart in the source and are kept apart here.

Key:
[1] = Brain dead cat ventilated with ENO before kidney donation (Example 20); type: in vivo; conditions: Example 20: brain dead cat ventilated with oxygen and 50 ppm ENO, 24 hours
From the text: A pet owner presents at a state veterinary college with her cat that was recently struck by car. […] The owner is informed that her cat is brain dead and then provided details about a feline kidney donation program—the owner agrees to have her pet's kidneys transplanted. The animal is intubated and ventilated with oxygen augmented with 50 ppm ENO to preserve organ physiologic status while potential recipients are identified. Two clients of the vet school who own cats with end-stage renal disease are contacted and are grateful for the opportunity to have their pets receive a healthy kidney.

[2] = design: species or system human; conditions: in vivo
[3] = Physiological response of sheep to simulated altitude with or without ENO (Example 12); type: in vivo; conditions: simulated altitude −4,500 meters, inhalation of 50 ppm ENO
[4] = Creatinine and AST levels following brain death in swine with or without ENO (Example 2); type: in vivo
Experimental: The levels of creatinine and aspartate aminotransferase (AST) were monitored in two groups of swine following brain death. The level of creatinine is indicative of kidney function. The level of AST is indicative of liver function. For each groups a base line blood sample was taken, brain death was induced, and the second sample was taken after 12 h with or without 50 ppm ENO mixed into the ventilation circuit. […] AST increased in both groups but the magnitude of the increase with ENO was half that observed in the control group (35 to 79 U/l v. 30 to 145 U/l).

[5] = ENO administration to organ donors before or during organ procurement (Examples 8-11); type: in vivo, human
Experimental: A living kidney donor is administered ENO via inhalation during an open nephrectomy or as part of the insufflation gas during a laparoscopic donor nephrectomy. ENO is provided in pressurized cylinders for delivery through the ventilation or insufflation devices. The amount of ENO delivered can be titrated based on blood gas or organ blood flow changes.
A catheter is placed in a large vein of a brain dead patient. The catheter contains a cylindrical bundle of microporous hollow fiber membranes woven into a mat at the end. The catheter is placed within the central venous blood stream in the primary vein that returns blood to the heart. […] A respiratory system is activated and oxygen with 50 ppm ENO flows from a console outside the patient, through the catheter and through the hollow fibers. The fiber membranes are permeable to gases. As a result, oxygen and ENO diffuses into the blood stream from the fibers, while carbon dioxide (CO2) diffuses out of the blood stream into the fibers. Excess O2 and CO2 are removed back through the catheter to the external console.
Patient on respiratory is pronounced dead. Creatine phosphokinase (CPK) leak is indicative of cardiac injury. Patient is started on ENO 20 ppm and further CPK leak is prevented.
Patient dies. […] Kidney function is preserved over durations usually associated with decline in function.

red blood cell SNO-Hb = experiment: Circulating SNO-Hb following brain death in swine ventilated with ENO (Example 1); type: in vivo; conditions: 12 hours after brain death
Experimental: The level of circulating SNO-Hb following brain death in three groups of swine was measured. […] FIG. 1 is a bar graph illustrating the results of administering ENO to an organ after brain death.

[6] = Example 11: deceased patient, ENO 20 ppm

CCON=O [ENO, ethyl nitrite]
organ function of donor [1]: maintained organ function
breathing disorder at altitude [2]: not exacerbated
dyspnea during commercial flight [2]: breathing normally
occurrence of Acute Mountain Sickness [2]: No individuals experiences Acute Mountain Sickness
signs of altitude sickness at altitude (prevention) [2]: no sign of altitude sickness
symptoms of altitude mountain sickness [2]: abate
symptoms of high altitude cerebral edema ([2]; iv): abate
symptoms of high altitude pulmonary edema ([2]; iv): abate
symptoms of altitude mountain sickness ([2]; po): abate
cardiac output, hypoxia/high-altitude-induced increase [3]: reducing
pulmonary arterial pressure (PAP), hypoxia/high-altitude-induced increase [3]: reducing
pulmonary vascular resistance (PVR), hypoxia/high-altitude-induced increase [3]: reducing
systemic vascular resistance (SVR) [3]: restoring SVR
AST level, second sample after 12 h ([4]; 50 ppm ENO in ventilation circuit, 12 h after brain death): 79 U/l
creatinine level (kidney function) ([4]; 50 ppm ENO in ventilation circuit, 12 h after brain death vs base line): unchanged
magnitude of the AST increase relative to control group ([4]; 50 ppm ENO, 12 h after brain death): half
AST level, base line sample ([4]; ENO group, base line before brain death): 35 U/l
kidney transplantation outcome ([5]; Example 8: living kidney donor, ENO via inhalation or insufflation gas during nephrectomy): successfully transplanted
liver transplantation outcome ([5]; Example 9: brain dead patient, oxygen with 50 ppm ENO via intravascular catheter): successfully transplanted
heart transplantation outcome ([5]; Example 10: ENO 20 ppm, heart harvested 24 hours later): successfully transplanted
creatine phosphokinase (CPK) leak (cardiac injury) ([5]; Example 10: patient pronounced dead, ENO 20 ppm): prevented
graft rejection [5, 6]: neither early nor late rejection is observed
kidney transplantation outcome [5, 6]: successfully transplanted
renal function [5, 6]: does not decline
change from baseline in red blood cell SNO-Hb concentration (red blood cell SNO-Hb; swine ventilated with 20 ppm ENO): an increase in SNO-Hb
change from baseline in red blood cell SNO-Hb concentration (red blood cell SNO-Hb; swine ventilated with 50 ppm ENO): an increase in SNO-Hb
